Data as given in PubChem BioAssay AID1963986 (Molecular Pharmacology Branch, DTP, NCI, 2024).

Tested on: 171881-019-R-J1-PDC tumor spheroid viability
Assay: Anticancer human tumor 171881-019-R-J1-PDC patient-derived invasive breast carcinoma cell line growth inhibition [PI3K]
Conditions: spheroids with HUVEC and MSC; for IC50: curve of first compound; for viability, T/C: stronger effect = lower value
Procedure, shortened: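 Viability of mixed-cell spheroids was determined after exposure to pairwise combinations, one partner being inavolisib, alpelisib, duvelisib or copanlisib. Highest tested concentration matched clinical Cmax where known and 10 microM where not, descending in half-log steps.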

[1] = second compound 0.00316 µM, first compound 0.0316 µM
[2] = second compound 0.00316 µM, first compound 0.1 µM
[3] = second compound 0.00316 µM, first compound 0.316 µM
[4] = second compound 0.00316 µM, first compound 1 µM
[5] = second compound 0.00316 µM, first compound 3.16 µM
[6] = second compound 0.00316 µM, first compound 10 µM
[7] = second compound 0.01 µM, first compound 0.0316 µM
[8] = second compound 0.01 µM, first compound 0.1 µM
[9] = second compound 0.01 µM, first compound 0.316 µM
[10] = second compound 0.01 µM, first compound 1 µM
[11] = second compound 0.01 µM, first compound 3.16 µM
[12] = second compound 0.01 µM, first compound 10 µM
[13] = second compound 0.0316 µM, first compound 0.0316 µM
[14] = second compound 0.0316 µM, first compound 0.1 µM
[15] = second compound 0.0316 µM, first compound 0.316 µM
[16] = second compound 0.0316 µM, first compound 1 µM
[17] = second compound 0.0316 µM, first compound 3.16 µM
[18] = second compound 0.0316 µM, first compound 10 µM
[19] = second compound 0.1 µM, first compound 0.0316 µM
[20] = second compound 0.1 µM, first compound 0.1 µM
[21] = second compound 0.1 µM, first compound 0.316 µM
[22] = second compound 0.1 µM, first compound 1 µM
[23] = second compound 0.1 µM, first compound 3.16 µM
[24] = second compound 0.1 µM, first compound 10 µM
[25] = second compound 0.316 µM, first compound 0.0316 µM
[26] = second compound 0.316 µM, first compound 0.1 µM
[27] = second compound 0.316 µM, first compound 0.316 µM
[28] = second compound 0.316 µM, first compound 1 µM
[29] = second compound 0.316 µM, first compound 3.16 µM
[30] = second compound 0.316 µM, first compound 10 µM
[31] = second compound 1 µM, first compound 0.0316 µM
[32] = second compound 1 µM, first compound 0.1 µM
[33] = second compound 1 µM, first compound 0.316 µM
[34] = second compound 1 µM, first compound 1 µM
[35] = second compound 1 µM, first compound 3.16 µM
[36] = second compound 1 µM, first compound 10 µM
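Note: spheroids exposed to compound for 7 days before viability read.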
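Throughout, for viability, T/C: 100% = DMSO vehicle-treated spheroids.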

C#Cc1c(F)ccc2cc(O)cc(-c3ncc4c(N5CC6CCC(C5)N6)nc(OCC56CCCN5CC(F)C6)nc4c3F)c12 (centres undefined) + CC(Nc1ccc2c(c1)OCCn1cc(N3C(=O)OCC3C(F)F)nc1-2)C(N)=O
IC50 (second compound 0.00316 µM): 187 nM
IC50 (second compound 0.01 µM): 99.6 nM
IC50 (second compound 0.0316 µM): < 31.6 nM
IC50 (second compound 0.1 µM): < 31.6 nM
IC50 (second compound 0.316 µM): < 31.6 nM
IC50 (second compound 1 µM): < 31.6 nM
viability, T/C [1]: 72.4%
viability, T/C [2]: 57.1%
viability, T/C [3]: 44.4%
viability, T/C [4]: 32.8%
viability, T/C [5]: 28.8%
viability, T/C [6]: 22%
viability, T/C [7]: 65%
viability, T/C [8]: 51.7%
viability, T/C [9]: 32%
viability, T/C [10]: 27.5%
viability, T/C [11]: 22.2%
viability, T/C [12]: 17.1%
viability, T/C [13]: 42.7%
viability, T/C [14]: 37.2%
viability, T/C [15]: 26.4%
viability, T/C [16]: 18.3%
viability, T/C [17]: 14.9%
viability, T/C [18]: 12.7%
viability, T/C [19]: 31.1%
viability, T/C [20]: 23.6%
viability, T/C [21]: 15.6%
viability, T/C [22]: 11.9%
viability, T/C [23]: 9.09%
viability, T/C [24]: 8.33%
viability, T/C [25]: 21.1%
viability, T/C [26]: 15.7%
viability, T/C [27]: 10.4%
viability, T/C [28]: 7.74%
viability, T/C [29]: 6.88%
viability, T/C [30]: 6.22%
viability, T/C [31]: 17.2%
viability, T/C [32]: 12.3%
viability, T/C [33]: 7.9%
viability, T/C [34]: 7.17%
viability, T/C [35]: 5.55%
viability, T/C [36]: 4.36%

CC1(C)CCC(Nc2ncc(C(F)(F)F)c(-c3c[nH]c4c(P(C)(C)=O)c(C#N)ccc34)n2)CN1 (centres undefined) + CC(Nc1ccc2c(c1)OCCn1cc(N3C(=O)OCC3C(F)F)nc1-2)C(N)=O
IC50 (second compound 0.00316 µM): 5040 nM
IC50 (second compound 0.01 µM): 4480 nM
IC50 (second compound 0.0316 µM): 1660 nM
IC50 (second compound 0.1 µM): < 31.6 nM
IC50 (second compound 0.316 µM): < 31.6 nM
IC50 (second compound 1 µM): < 31.6 nM
viability, T/C [1]: 68%
viability, T/C [2]: 70.8%
viability, T/C [3]: 74.5%
viability, T/C [4]: 72.6%
viability, T/C [5]: 81.4%
viability, T/C [6]: 15.6%
viability, T/C [7]: 60.8%
viability, T/C [8]: 65.4%
viability, T/C [9]: 65.8%
viability, T/C [10]: 73.6%
viability, T/C [11]: 66.9%
viability, T/C [12]: 12%
viability, T/C [13]: 44.7%
viability, T/C [14]: 49.7%
viability, T/C [15]: 54.6%
viability, T/C [16]: 57.4%
viability, T/C [17]: 47.4%
viability, T/C [18]: 5.82%
viability, T/C [19]: 34.1%
viability, T/C [20]: 37%
viability, T/C [21]: 39.9%
viability, T/C [22]: 40.4%
viability, T/C [23]: 33.3%
viability, T/C [24]: 2.6%
viability, T/C [25]: 27.7%
viability, T/C [26]: 26.8%
viability, T/C [27]: 30.2%
viability, T/C [28]: 29.4%
viability, T/C [29]: 24.4%
viability, T/C [30]: 1.37%
viability, T/C [31]: 21.3%
viability, T/C [32]: 22.5%
viability, T/C [33]: 23.6%
viability, T/C [34]: 22.9%
viability, T/C [35]: 16.8%
viability, T/C [36]: 1.29%
